The results in this text go back to paper PMC7228129, “Evaluation of Developmental Toxicity, Developmental Neurotoxicity, and Tissue Dose in Zebrafish Exposed to GenX and Other PFAS” (Environmental Health Perspectives, 2020).

Several values for one entry are separate records, joined by “and”; a condition that tells them apart may be missing. Equal entries are not always repeated. Where two headings read alike, the source gives them in different places.

The nature of this data set: Tissue analysis (internal tissue dose of parent PFAS, bioconcentration factor). Type of data set: in vivo, Danio rerio. The settings on record: for BCFdry: 6-d zebrafish assay; for BCFdry / concentration at 6 dpf: 0.4% DMSO; for concentration at 6 dpf: zebrafish (Danio rerio), whole larvae (pools of 10, homogenised), other: waterborne exposure in the well medium, 6 dpf larvae, dry weight 44 μg per larva, read-out: Measured tissue dose; for Dil Corrected Reported Conc. (fMole/larvae), measured tissue concentration: zebrafish larvae, replicate samples per experiment/plate. How it is done: Zebrafish were exposed to 25.1, 44.8, or 80.0μM ADONA, PFOA, PFESA1, or PFHxA, 14.0, 25.1, or 44.8μM PFHxS, or 1.0, 1.8, or 3.1μM PFOS, or 0.4% DMSO. The highest concentration evaluated was the no observed effect concentration (NOEC) determined in Study 1. In Study 2, zebrafish were exposed to 25.1, 44.8, or 80.0μM GenX Free Acid or 0.4% DMSO. According to the previously described microtiter plate inclusion criterion, 15/15 plates were included in the study. Larvae were anesthetized by rapid cooling in chilled 10% HBSS. Groups of 10 anesthetized larvae were pooled to comprise one biological replicate ( n=4 ) in 500μL of 10% HBSS, flash frozen in liquid nitrogen, and stored at −80°C . In the case of ADONA, n=5 .
Tissue samples were prepared by protein precipitation. Flash frozen samples, consisting of pools of ten 6-dpf zebrafish larvae, were homogenized using ∼100mg of 1.0-mm diameter zirconia/silica beads and a Fast-Prep-24™ homogenizer (MP Biomedicals) in 100μL 0.1M formic acid fortified with the surrogate (i.e., PFNA). Protein was precipitated from the homogenate with 400μL of acetonitrile containing internal standards and separated by centrifugation at 14,000 rpm for 15 min at 4°C. Fifty microliters of the extract was diluted with 200μL aqueous 0.4 mM ammonium formate in the LC vial for analysis. Standards and samples were analyzed with Vanquish UPLC and Orbitrap Fusion mass spectrometer (Thermo Electron) operated in negative ESI mode. ESI source conditions were optimized for the [M-H]^− ion of PFAS as follows: spray voltage −3.5 kV , sheath gas 25 au (arbitrary units), aux gas 6 au, sweep gas 0 au, ion transfer tube temperature 300°C, and vaporizer temperature […]. High-resolution accurate mass (HRAM) MS1 scans were collected with the following parameters: detector type orbitrap, orbitrap resolution 30,000 full width at half maximum (FWHM), normal mass range, Use quadrapole isolation=true , scan range 70–700m/z , radio frequency (RF) lens 60%, automatic gain control (AGC) target 4.00×10^5 , max injection time of 50 ms , 1 microscan, data type set to profile, negative polarity, and source fragmentation disabled. Data-dependent orbitrap MSMS (ddMS2-OT) scans were collected for the [M-H]^− ion [ M-H-CO2 for GenX]^– using a target mass list for the eight PFAS and PFNA surrogate for identity confirmation. The apex detection was set to an expected peak width of 2 s at FWHM and desired apex peak window of 30%. The dynamic exclusion parameters were set to exclude after a one-time, 60-s exclusion duration, low and high mass tolerances of 10 ppm , and exclude isotope was set to true. The intensity threshold for collecting an MSMS scan was set to 2.5E+04 . Fragmentation was done by high-energy collisional dissociation (HCD). The ddMS2-OT scans were collected with the following parameters: orbitrap isolation mode, isolation window of 1.6m/z , isolation offset off, stepped HCD collision energy of 30%±10% , scan range of auto mass-to-charge ratio normal, orbitrap resolution of 30,000 FWHM, first mass 75m/z , max injection time of […], AGC target 5.00×10^4 , inject ions from available parallelizable time set to true, max injection time of 54 ms, 1 microscan, and data type set to centroid. UPLC separation was achieved using ACQUITY UPLC BEH C18 Column, 130Å , 1.7μM , 2.1mm×50mm (Waters Corp P/N 186,002,350) at 50°C with gradient elution at a flow rate of 300μL/min using 0.4 mM ammonium formate in acetonitrile and water with a 10-μL injection. Data collection, integration, calibration, and quantitation were performed using Xcalibur software (version 4.1; Thermo Electron). Concentration for each PFAS analyte was determined by internal standard technique using isotopically labeled internal standards and matrix-matched calibration standards. Quantitative analysis was performed using high-resolution MS1-extracted ion chromatograms. […]

With `O=S(=O)(O)C(F)(F)C(F)(F)C(F)(F)C(F)(F)C(F)(F)C(F)(F)C(F)(F)C(F)(F)F` [PFOS, Perfluorooctanesulfonic acid], under “among chemicals assessed, from BCF values”, the “Bioaccumulation ranking” value is given as “most bioaccumulative”. The BCFdry (nominal 1.0 μM) was 1,374.89 L/kg, the BCFdry (nominal 1.8 μM) was 1,348.46 L/kg and the BCFdry (nominal 3.1 μM) is 684.03 L/kg. For the same compound, the concentration at 6 dpf reads like this: (nominal 1.0 μM daily 0–5 dpf) 220000 ± 109000 ng/g; (nominal 1.8 μM daily 0–5 dpf) 422000 ± 183000 ng/g; (nominal 3.1 μM daily 0–5 dpf) 678000 ± 53500 ng/g. For the same compound, the “Dil Corrected Reported Conc. (fMole/larvae), measured tissue concentration” value is, setting by setting: (exposure Concentration 0.986 µM) 29113.1 fMole/larvae and 7862.61 fMole/larvae and 11812.2 fMole/larvae and 28665.6 fMole/larvae; (exposure Concentration 1.76 µM) 24142 fMole/larvae and 18963.9 fMole/larvae and 47666.3 fMole/larvae and 57759 fMole/larvae; (exposure Concentration 3.144 µM) 57262.1 fMole/larvae and 67321.8 fMole/larvae and 54771.6 fMole/larvae and 59188.7 fMole/larvae.
